Results as given in US6552066B1, “Protein tyrosine kinase inhibitors for treating osteoarthritis” (priority 1995, dated 2003).
Like-named read-outs stand apart in the source and are kept apart here.

Legend:
[1] = tested on: IL-1 induced release of 35S-labelled proteoglycans from chondrocytes; assay: Chondrocyte cell culture matrix breakdown assay (IL-1 induced 35S release); type: cell-based, calf (bovine); details: for inhibition at 50 µM / inhibition at 10 µM: Bos taurus, Chondrocyte
Procedure: A cell culture assay was used to measure the ability of the test compounds to slow the degradation of the extracellular matrix by a metalloproteinase. This assay measured the amount ^35S released from chondrocytes grown in a media with ^35S labeled sodium sulfate. The cell culture assay was carried out as follows:
Two or three 1 to 3 week old calf joints were obtained from an abattoir. The proximal end of the shank was about 4-5′ long to facilitate immobilization in the holder. The joint was kept cool and transported on ice. The exterior of the intact joints was washed well with a suitable anti-microbial soap, rinsed clean with warm water, rinsed in betadine and then finally rinsed with 70% ethanol. Up to this point all steps were done in a manner to ensure that the joint was kept as clean as possible. All subsequent steps were performed in a sterile field (i.e., in a Edgeguard laminar flow tissue culture hood). The joint was immobilized and the synovial fluid was aspirated with a needle and syringe. The joint was then cut open to expose the articular cartilage using a #21 scalpel. Using locking hemostats, forceps and a #15 scalpel, the cartilage was excised in full thickness pieces. Care was taken not to cut too deep into the subchondral bone to prevent bleeding. The cartilage pieces were placed into a 50 mL centrifuge tube containing 25 mL of Delbecco's phosphate buffered saline (D-PBS) supplemented with 1% antibiotic solution (penicillin, streptomycin and fungizone; GIBCO/BRL). The slices from each joint were then placed into separate 50 mL centrifuge tubes. The D-PBS was decanted and replaced with 25 mL of fresh D-PBS supplemented with antibiotics and subsequently agitated gently.
The cartilage pieces were transferred to a fresh 50 mL centrifuge tube and rinsed once more with 25 mL of D-PBS minus antibiotics. An enzymatic digestion solution containing 1 mg/mL of hyaluronidase in serum-free 1:1 DMEM/Ham's F-12 (DMEM/F12) was prepared. This solution was filter sterilized with 0.22 mm Milex-GV filter and kept on ice until ready to use. The cartilage pieces were digested with approximately 5 mL of hyaluronidase solution per joint for 2×15 minutes at 37° C. in the 50 mL centrifuge tube with gentle agitation at the 15 minute mark. This procedure removed residual hyaluronic acid from the surface of the chips. The enzymatic digestion solution was then aspirated and the cartilage pieces were rinsed with 25 mL of D-PBS.
A second enzymatic digestion solution containing 2.5 mg trypsin and 2 mg collagenase P per mL serum-free DMEM/F12 was prepared. This solution was also filter sterilized with a 0.22 mm Millex-GV filter and kept on ice until ready to use. The cartilage pieces were digested with approximately 5 mL of trypsin: collagenase solution per joint for 2×15 minutes at 37° C. in the 50 mL centrifuge tube with gentle agitation at the 15 minute mark. This procedure removed the synovial fibroblasts and any adherent connective tissue from the surface of the chips. The enzymatic digestion solution was then carefully removed and saved and the cartilage pieces were rinsed with 25 mL of D-PBS.
A third enzymatic solution containing 2 mgs of collagenase P (BMB) per mL serum-free DMEM/F12 was prepared. This solution was filter sterilized with a 0.22 mm Millex-GV filter and kept on ice until ready to use. The pre-digested cartilage pieces were finally digested with approximately 20 mL of enzymatic digestion solution per joint for 5-6 hours at 37° C. in a Bellco stirring digestion flask, at which point the cartilage was fully digested away.
The enzymes in the synovial fibroblast and chondrocyte digest were neutralized by addition of an equal volume of DMEM/F12 supplemented with 5% fetal bovine serum. Fibroblasts were plated in DMEM at a cellular density of 6.6×10^3 cells per cm^2. […]

[2] = tested on: prostromelysin protein; assay: Western immunoblot of IL-1-induced prostromelysin protein in primary bovine chondrocytes; type: cell-based; details: for effect on IL-1-induced prostromelysin levels: first experiment; for effect on IL-1α-induced prostromelysin protein levels: repeat experiment
Procedure: Isolation and culturing of primary bovine articular chondrocytes, as well as addition of inhibitors were performed as indicated above in Example 4. The following protein kinase inhibitors were tested: 1) Protein kinase A (PKA) inhibitors; 0.5 μM H88 (Seikagaku Corp.), 0.5 μM H89 (Seikagaku Corp.), 2) Protein kinase C (PKC) inhibitors; 0.5 μM Calphostin C (Calbiochem), 1.0 μM Chelerythrine (Calbiochem); 3) CA^2+/Calmodulin Kinase II inhibitor; 5.0 μM KN93 (Seikagaku Corp.); 4) Protein tyrosine kinase (PTK) inhibitors; 50 μM Genistein (Calbiochem), 10 μM Herbimycin A (Calbiochem).
After the 24 hour IL-1α incubation, the media of each sample was measured and collected on ice in the presence of the protease inhibitors EGTA (5 mM), Pefabloc (1 mM), pepstatin (1 μg/ml), and NEM (5 mM). Media were concentrated approximately 40 fold using a Centriprep-10 ultrafiltration device (Amicon). Concentrated samples were normalized to equivalent starting concentrations (cell number/culture volume), were reduced in the presence of SDS Laemmli sample buffer and electrophoresed in a precast 12% polyacrylamide gel (BioRad). Protein samples were then electroblotted to nitrocellulose and immunodetected using a primary antibody that recognizes both prostromelysin and stromelysin. Immunoreactive bands were visualized with the ABC detection (Pierce) and an NBT/BCIP color reagent (Sigma).
A repeat of the Western immunoblotting experiment using antistromelysin antibodies was performed. Furthermore, additional inhibitors from four enzyme families were examined: 1) Protein tyrosine kinase (PTK) inhibitors: 1 μM Tyrphostin AG 1296 (Calbiochem), 50 μM Tyrphostin A25 (AG 82) (Calbiochem), 50 μM Tyrphostin AG 126 (Calbiochem); 2) Guanylate cyclase inhibitor; 10 μM LY-83583 (Calbiochem); 3) Casein kinase I inhibitor; 20 μM CKI-7 (Seikagaku Corp.); and 4) Protein kinase G (PKG) and PKA inhibitor; 5.0 μM H89.

[3] = concentration not printed in Example 5

O=c1c(-c2ccc(O)cc2)coc2cc(O)cc(O)c12 [Genistein]
inhibition at 50 µM ([1]; 50 μM, first experiment, 1 ng/ml rhIL-1α, read-out: inhibitory effect on IL-1 induced release of 35S-labelled proteoglycans): 75 to 100% | inhibition at 50 µM ([1]; 50 μM, repeated assay, read-out: percent inhibition of IL-1 induced 35S release): 58% | effect on IL-1-induced prostromelysin levels ([2]; 50 μM): completely inhibited | effect on IL-1α-induced prostromelysin protein levels ([2]; 50 μM): dramatic reduction

N#C/C(=C\c1ccc(O)c(O)c1)C(=O)NCCCCc1ccccc1 [Tyrphostin AG 556]
percent inhibition of IL-1 induced 35S release ([1]; 50 μM, repeated assay): 100% | effect on IL-1α-induced prostromelysin protein levels [2, 3]: dramatic reduction

N#CC(C#N)=Cc1ccc([N+](=O)[O-])c(O)c1 [Tyrphostin AG 126]
percent inhibition of IL-1 induced 35S release ([1]; 50 μM, repeated assay): no inhibition | effect on IL-1α-induced prostromelysin protein levels ([2]; 50 μM): no effect

CO[C@H]1[C@@H](OC)C[C@H](C)[C@@H](OC)C2=CC(=O)C=C(NC(=O)/C(C)=C/C=C\[C@H](OC)[C@@H](OC(N)=O)/C(C)=C/[C@@H]1C)C2=O [Herbimycin A]
inhibition at 10 µM ([1]; first experiment, 1 ng/ml rhIL-1α, read-out: inhibitory effect on IL-1 induced release of 35S-labelled proteoglycans): 75 to 100% | inhibition at 10 µM ([1]; repeated assay, read-out: percent inhibition of IL-1 induced 35S release): 89% | effect on IL-1-induced prostromelysin levels ([2]; 10 μM): completely inhibited | effect on IL-1α-induced prostromelysin protein levels ([2]; 10 μM): dramatic reduction

N#CC(C#N)=Cc1cc(O)c(O)c(O)c1 [Tyrphostin AG 82]
percent inhibition of IL-1 induced 35S release ([1]; 50 μM, repeated assay): 40% | effect on IL-1α-induced prostromelysin protein levels ([2]; 50 μM): slight inhibitory activity

O=C1NC(=O)c2cc(Nc3ccccc3)c(Nc3ccccc3)cc21 [DAPH, 4,5-dianilinophthalimide]
percent inhibition of IL-1 induced 35S release ([1]; 2 μM, repeated assay): no inhibition | percent inhibition of IL-1 induced 35S release ([1]; 20 μM, repeated assay): no inhibition | effect on IL-1α-induced prostromelysin protein levels [2, 3]: dramatic reduction
